Test results reported in patent publication US8722649B2, “Alpha-chloro and alpha-bromo phosphonate analogs of lysophosphatidic acid and methods of making and using thereof” (University of Utah Research Foundation, priority 2007, dated 2014).
Entries after “also recorded” stand apart in the source; their conditions may differ.

How the values were obtained:
[1] = test system: LPA GPCRs; assay: Ca2+ mobilization assay, overall profile across LPA GPCRs; type: cell-based, human; conditions: across LPA1-4
Method: After incubating the cells with Fura-2 AM, the cells were rinsed with Krebs buffer and changes in the intracellular Ca^2+ concentration were monitored by determining the ratio of emitted light intensities at 520 nm in response to excitation at 340 and 380 nm using FLEXstation II (Molecular Devices, Sunnyvale, Calif.). Each well was monitored for 80-120 sec. For testing agonist activity of the compounds, the test compounds were added automatically after 15 sec of baseline measurement. To determine antagonist properties, varying concentrations of the compounds were mixed with a constant concentration of LPA and responses were monitored. Each test was performed in quadruplicate. EC50, IC50, and Ki values were calculated by fitting a sigmoid function to data points with the nonlinear curve-fitting feature of KaleidaGraph (Synergy Software, Essex Junction, Vt.).
Receptor activation using Ca^2+ mobilization assay. The assay for mobilization of intracellular Ca^2+ was performed as described. […] Using a FLEXStation (Molecular Devices, Sunnyvale, Calif.), changes in intracellular Ca^2+ concentration were monitored. Ligand-induced changes in fluorescence were monitored for 80-120 seconds. Ca^2+ transients were quantified automatically by calculating the difference between maximum and baseline ratio values for each sample. […] EC50, IC50, and Ki values were calculated as described. […]

[2] = test system: HCT 116 cells; assay: HCT 116 proliferation (MTS); type: cell-based; conditions: 2, 10, 20 μM, 72 h
Text: Effects of bromo-LPA analogs on HCT 116 proliferation. HCT 116 cells were purchased from the American Type Culture Collection (Manassas, Mass.). Medium and reagents were obtained from the following sources: McCoy's 5a Medium (ATCC, Manassas, Va.); Penicillin-Streptomycin (MP biomedicals, Solon, Ohio); Fetal bovine serum (ATCC, Manassas, Mass.); Accutase (MP biomedicals, Solon, Ohio); MTS (Promega, Madison, Wis.); Matrigel (Becton Dickinson Labware, Cambridge, Mass.); Extracel (Glycosan, Salt Lake City, Utah). Lysophosphatidic acid receptor pan-Antagonist (LPAa)—the pure diastereomers 1a and 1b, and the mixed diastereomers 1 (University of Utah, Salt Lake City, Utah).
HCT 116 cells were maintained in McCoy's 5a medium supplemented with 10% FBS, 100 μg/ml streptomycin, and 100 units/ml penicillin at 37° C. in 95% air, 5% CO2. 4,000HCT-116 cells were seeded in 100 μl media in each well of 96-well flat-bottomed microplates (BD Labware, N.J.). The pure diastereomers 1a and 1b, and the mixed diastereomers 1 were added at various final concentrations (2 μM, 10 μM, 20 μM) to each column. At 72 h, pipet 20 μl MTS (Promega, Madison, Wis.) into each well, and cells were further incubated for 2 h. The absorbance of the samples at 490 nm was measured using a 96-well plate reader (OPTI max, Sunnyvale, Calif.).

[3] = test system: HCT 116 cells; assay: HCT 116 wound-healing migration assay; type: cell-based; conditions: 20 μM; 0, 16, 24 and 48 hours
Method: Effects of BrP-LPA analogs on HCT 116 migration. HCT 116 (2×10^5 per well) were plated in a six-well plate. When the cells were 100% confluent, the cells were treated with Mitomycin C (Sigma, MO, USA) 10 μg/ml for 2 hours, and then the monolayer was scratched using a 200 μl pipette tip. Medium and nonadherent cells were aspirated, the adherent cells were washed once, and new medium containing various concentrations of the pure diastereomers 1a and 1b, and the mixed diastereomers 1 (2 μM, 10 μM, 20 μM) was added (FIG. 13). A photograph was taken at the marked field (n=4) at 0, 16, 24 and 48 hours (FIG. 14). Wound closure was expressed as a percentage of the initial wound area, which was quantified using NIH ImageJ software.

| SMILES | overall LPA GPCR ligand profile [1] | HCT 116 cell proliferation [2] | HCT 116 cell migration [3] |
| --- | --- | --- | --- |
| CCCCCCCCCCCCCCCC(=O)OC[C@@H](O)C[C@@H](Br)P(=O)(O)O [Compound 1a] | pan-antagonist |  |  |
| CCCCCCCCCCCCCCCC(=O)OC[C@@H](O)C[C@H](Br)P(=O)(O)O [Compound 1b] |  | highly suppressed; also recorded: dose-dependent inhibition | greatest inhibition |
